Measured values as given in PMC6058718, “Doxorubicin conjugated with a trastuzumab epitope and an MMP-2 sensitive peptide linker for the treatment of HER2-positive breast cancer” (Drug Delivery, 2018).
Like-named read-outs stand apart in the source and are kept apart here. Where a SMILES comes first, the peptide text is derived from it. Bridges are numbered along the chain shown (N, C = ends). Where no end group is shown, it is not given here. The star is where a group is joined. Glutaryl(5-(14-O-Dox)) = COc1cccc2c1C(=O)c1c(O)c3c(c(O)c1C2=O)C[C@@](O)(C(=O)COC(=O)CCCC(=O)*)C[C@@H]3O[C@H]1C[C@H](N)[C@H](O)[C@H](C)O1

Assays:
BT474 xenografts = settings: nude mice with BT474 xenografts, 5 mg DOX equivalent/kg once every seven days for three times
Protocol: Eighteen athymic nude mice (Balb/c nu/nu, females) were used. All animal experiments were carried out in accordance with guidelines evaluated and approved by the ethics committee of Nanjing Medical University. BT474 cells were first collected in a concentration of 1 × 10^7/mL and orthotopically injected into the mammary fat pad area of each mouse with 0.1 mL PBS/mouse.
(§1) When the tumor size reached a volume of about 50 mm^3, the mice were randomly divided into three groups (each group consisted of 6 mice) for the treatment with 5 mg DOX equivalent/kg of either free DOX or MAHNP-DOX once every seven days for three times. Saline was used as negative control. The animals’ weight and tumor dimensions were measured every five days. Tumor volume was calculated using an equation: TV =1/2 × a × b^2, where a is the largest diameter and b is the smallest diameter. Each animal was tagged in the ear and followed individually throughout the experiment. For in vivo imaging study, the mice were intravenously injected through the caudal vein by 5 mg DOX equivalent/kg of free DOX and MAHNP-DOX, images were taken on IVIS LuminaXR imaging system (Perkin Elmer, San Diego, CA, USA) at 4 h post injection. Tumors and organ samples including heart, liver, spleen, kidneys and lungs were carefully removed and stored in liquid nitrogen. To assess the pharmacokinetic profile of the drugs, free DOX and MAHNP-DOX were injected intravenously into the mice, respectively. Blood samples were collected at 0.083, 0.25, 0.5, 1, 2, 4, 8, 12 and 24 h post injection.

[1] = Pharmacokinetic profile in plasma of mice; settings: intravenous injection, blood 0.083-24 h post injection, LC-MS/MS, n = 3
Protocol: as §1

MMP-2 = biological target: T1, MMP-2 (Mus musculus, UniProt P33434); assay: Enzymatic cleavage of MAHNP-DOX by MMP-2 in NIH-3T3 conditioned medium; type: in vitro ADME; settings: 5 μM MAHNP-DOX in concentrated conditioned medium from NIH-3T3 cells containing active MMP-2, 37 °C, 2 h of incubation, HPLC / LC-MS/MS
T1 construct: 4 mL of the medium containing active MMP-2 (i.e. conditioned medium) was collected and concentrated; endogenous in cells; host or cells: NIH-3T3 fibroblasts; serum-free conditioned medium concentrated with a 10 K centrifugal filter
T1 sequence (P33434 110-662): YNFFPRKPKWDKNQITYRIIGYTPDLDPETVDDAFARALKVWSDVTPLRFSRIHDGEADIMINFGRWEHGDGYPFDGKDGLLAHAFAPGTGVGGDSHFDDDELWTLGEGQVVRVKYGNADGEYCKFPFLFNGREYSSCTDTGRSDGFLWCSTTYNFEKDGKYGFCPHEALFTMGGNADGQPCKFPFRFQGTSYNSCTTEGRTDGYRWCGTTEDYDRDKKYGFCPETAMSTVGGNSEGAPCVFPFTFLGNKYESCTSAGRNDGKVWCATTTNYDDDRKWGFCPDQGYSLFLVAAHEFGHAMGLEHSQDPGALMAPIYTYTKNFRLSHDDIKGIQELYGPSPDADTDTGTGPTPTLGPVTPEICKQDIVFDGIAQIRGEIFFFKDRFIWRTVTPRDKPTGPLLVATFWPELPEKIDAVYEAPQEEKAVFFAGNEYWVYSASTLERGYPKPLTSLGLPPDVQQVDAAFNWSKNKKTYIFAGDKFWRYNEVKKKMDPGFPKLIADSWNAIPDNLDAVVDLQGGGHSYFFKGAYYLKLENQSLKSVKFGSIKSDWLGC
Protocol: NIH-3T3 cells that can secrete active MMP-2 (Figure S1) were cultured in serum-free medium for 24 h. Then, 4 mL of the medium containing active MMP-2 (i.e. conditioned medium) was collected and concentrated to 500 μL using Amicon Ultra-4 10 K centrifugal filter devices (Millipore, Bedford, MA, USA) (Aye et al., [2004]). Dilution of MAHNP-DOX at a concentration of 5 μM was prepared with the concentrated conditioned medium and incubated at 37 °C. Aliquots were removed at 1 h and 2 h and then analyzed by LC–MS/MS (van Duijnhoven et al., [2011]). The analysis was performed on XBridge™ C18 column (5 μm, 4.6 × 250 mm; Waters, Milford, MA, USA) at room temperature. The flow rate of HPLC was 0.3 mL/min with a mobile phase consisted of solvent A (water with 0.1% FA) and solvent B (ACN). The gradient was as follows: B 0 min (10%) → 15 min (90%) → 20 min (90%) → 25 min (10%).
The sensitivity of MAHNP-DOX to MMP-2 was studied using HPLC. To date, there has been substantial evidence indicating stronger signals for MMP-2 in stromal cells compared to cancer cells, while stromal fibroblasts interact with cancer cells by secreting and activating MMP-2 (Saad et al., [2002]; Hassona et al., [2014]). […] Thus, the peaks for MAHNP-DOX and one product after cleavage of GLPG-DOX were monitored. […]

[2] = Biodistribution in BT474 tumor-bearing mice by fluorescent imaging and HPLC; type: in vivo; settings: 4 h after intravenous injection, 5 mg DOX equivalent/kg
Text: Saline was used as negative control.
Daunorubicin (DAU) was used as internal standard.

BT474 cells [3] = assay: MTT cytotoxicity assay, BT474 cells; type: cell-based, human
Protocol: (§2) The cytotoxicity of MAHNP-DOX was determined using MTT test. Free DOX was used as positive control, and the cells treated with conditioned medium only were considered as negative control. BT474 and SKBR3 cells in exponential growth were seeded in a 96-well plate and incubated for 24 h at 37 °C. Then, a series of dilutions of free DOX and MAHNP-DOX at equivalent concentration were prepared with the conditioned medium and incubated for another 48 h. After an addition of MTT solution (5 mg/ml in PBS) to each well, the cells were incubated for 4 h and lysed in DMSO. Absorbance was determined at 490 nm using an EL ×800 absorbance microplate reader (Biotek, Winooski, VT, USA). The IC50 values were calculated from the linear regression of the dose–log response curves using GraphPad Prism 6 software (GraphPad Software, San Diego, CA, USA).
(§3) To further confirm the dependence of cytotoxicity on MMP-2 activity, NIH-3T3 cells were pre-incubated with 10 μM MMP-2 inhibitor I in serum-free medium for 24 h, and the medium was also collected termed as treated conditioned medium. Following the procedure above, the cytotoxicity of MAHNP-DOX was also determined using this medium.

SKBR3 cells [4] = assay: MTT cytotoxicity assay, SKBR3 cells; type: cell-based, human
Protocol: as §2, §3

SKBR3 cells [5] = assay: TUNEL assay, SKBR3 cells; type: cell-based, human; settings: 24 h treatment, n = 3
Protocol: (§4) Transferase-mediated nick-end labeling assay was carried out using the DeadEnd Fluorometric TUNEL system kit (Promega, Madison, WI, USA). […] Images were acquired at room temperature with an inverted fluorescence microscope (Leica, DMI3000B, Wetzlar, Germany).

BT474 cells [6] = assay: TUNEL assay, BT474 cells; type: cell-based, human; settings: 24 h treatment, n = 3
Protocol: as §4

[7] = biological target: human epidermal growth factor receptor family member HER2 (human (endogenous in BT474 and SKBR3)) (UniProt P04626)
[8] = 48 h, in conditioned medium, n = 3, read-out: IC50
[9] = conditioned medium from NIH-3T3 cells pretreated with 10 μM MMP-2 inhibitor I, n = 3, read-out: IC50 with MMP-2 inhibitor pretreatment

increase of the cell population in the G1 phase, BT474 cells, 48 h exposure to AHNP (10 μM) alone, flow cytometry [7] [%]	increase of the cell population in the G1 phase, SKBR3 cells, 48 h exposure to AHNP (10 μM) alone, flow cytometry [7] [%]	Molecule	toxicity / body weight change (BT474 xenografts)	half-life t1/2 in plasma [1] [h]	efficiency of cleavage (MMP-2) [%]	drug amount in the tumors compared with free DOX ([2]; fluorescent images confirmed by HPLC, p < .01)	drug accumulation in heart, liver, spleen, lung and kidney compared with free DOX ([2]; p < .05)	IC50 (BT474 cells [3]; [8]) [nM]	IC50 (BT474 cells [3]; [9]) [nM]	IC50 (SKBR3 cells [4]; [8]) [nM]	IC50 (SKBR3 cells [4]; [9]) [nM]	tumor growth inhibition (BT474 xenografts; day 25 after treatment) [%]	percentage of apoptotic cells (SKBR3 cells [5]) [%]	percentage of apoptotic cells (BT474 cells [6]) [%]
–	–	COc1cccc2c1C(=O)c1c(O)c3c(c(O)c1C2=O)C[C@@](O)(C(=O)COC(=O)CCCC(=O)NCC(=O)N1CCC[C@H]1C(=O)N[C@@H](CC(C)C)C(=O)NCC(=O)N[C@@H](CC(C)C)C(=O)N[C@@H](C)C(=O)NCC(=O)N[C@@H](CC(=O)O)C(=O)N[C@@H](CC(=O)O)C(=O)N[C@@H](Cc1ccc(O)cc1)C(=O)N[C@H]1CSSC[C@@H](C(=O)N[C@@H](Cc2ccc(O)cc2)C(=O)N[C@@H](CCSC)C(=O)N[C@@H](CC(=O)O)C(=O)N[C@H](C(N)=O)C(C)C)NC(=O)[C@H](C)NC(=O)[C@H](Cc2ccc(O)cc2)NC(=O)[C@H](Cc2ccccc2)NC(=O)CNC(=O)[C@H](CC(=O)O)NC1=O)C[C@@H]3O[C@H]1C[C@H](N)[C@H](O)[C@H](C)O1 [MAHNP-DOX] ({Glutaryl(5-(14-O-Dox))}-GPLGLAGDDYCDGFYACYMDV-NH2; disulfide 11-17)	less weight loss	17.6 ± 6.4	80.8	significantly higher	lower	747 ± 81.5	1350 ± 154	110 ± 12.7	147 ± 16.3	–	–	–
–	–	COc1cccc2c1C(=O)c1c(O)c3c(c(O)c1C2=O)C[C@@](O)(C(=O)CO)C[C@@H]3O[C@H]1C[C@H](N)[C@H](O)[C@H](C)O1.Cl [free DOX, Doxorubicin hydrochloride]	Toxicity was observed	7.7 ± 1.6	–	–	–	2080 ± 368	–	173 ± 19.2	–	53.4 ± 6.6	44.8 ± 2.8	34.2 ± 2.1
6.58	9.95	YCDGFYACYMDV-NH2 (disulfide 2-8) [anti-HER2 peptide mimetic AHNP]	–	–	–	–	–	–	–	–	–	–	–	–
